Conditions: for mass density: isochoric method

CCC(C)O (centres undefined) [butan-2-ol]
Conditions	Critical density [kg/m3]	Critical temperature [K]	mass density [kg/m3]
306.95 K, Liquid	–	–	794.06
335.35 K, Liquid	–	–	769.05
367.55 K, Liquid	–	–	735.98
408.51 K, Liquid	–	–	683.53
433.35 K, Liquid	–	–	648.53
463.85 K, Liquid	–	–	598.18
492.87 K, Liquid	–	–	538.17
504.95 K, Gas	–	–	76.44
514.26 K, Gas	–	–	95.93
515.15 K, Liquid	–	–	474.07
522.2 K, Gas	–	–	117
527.92 K, Gas	–	–	142.27
529.41 K, Liquid	–	–	403.55
533.73 K, Gas	–	–	184.89
534.55 K, Liquid	–	–	347.06
534.68 K, Gas	–	–	198.25
535.83 K, Gas	–	–	245.67
535.83 K, Liquid	–	–	301.19
535.89 K, Liquid	–	–	286.65
535.93 K, Liquid	–	–	284.93
535.94 K, Liquid	–	–	279.19
535.95 K, Liquid	–	–	276.45
Liquid, DSC	276.4	–	–
Liquid, DTA	–	535.95	–

Source: the NIST ThermoML archive (doi:10.1016/j.tca.2013.08.031)
